Reference: patent publication US5061791A, “4-bromo-4'-demethylepipodophyllotoxin derivatives” (Warner-Lambert Company, priority 1989, dated 1991)
Read-outs that look alike come from different tables or passages of the source.

What was measured:
[1] = system: P388 murine leukemia cell line; assay: In vivo antineoplastic test, P388 leukemia in mice; design: species or system murine (male and female CD2Fl mice)
Method: (§1) Compounds of the present invention are tested for antineoplastic activity by the following in vitro L1210 and in vivo P388 leukemia protocols:
In Vivo Antineoplastic Test Protocol
The activities of compounds of the present invention are tested against the P388 murine leukemia cell line in vivo. This protocol tests the effectiveness of a given compounds to inhibit the growth of the transplanted P388 murine leukemia cell line in male and female CD2Fl mice. Each test included a group of six or seven mice. The test is described in detail in Cancer Chemotherapy Reports, Part 3, Volume 3, pp 1-85 (1972).
The tumor cell line is transplanted into the test animals by intraperitoneal injection of ascites fluid containing the cell line. […]
A compound is designated "toxic" if, at a given dose, no animal survives after four days following first injection of the test compound. A ratio of survival time for treated animals (T) animals relative to control (C) animals is calculated for each nontoxic dose. A criterion for efficacy is a ratio of (T/C)×100 equal to or greater than 125.

[2] = background art; cited from earlier work
[3] = system: tumors, including small-cell carcinoma of the lung, acute leukemia, malignant lymphoma, and testicular cancer; settings: background art; cited from earlier work
[4] = system: L1210 murine leukemia cell line; assay: In vitro antineoplastic test, L1210 leukemia (MTT, 3 days); type: cell-based; settings: Mus musculus, read-out: L1210 Leukemia In Vitro Mean IC50
Method: as §1
In Vitro Antineoplastic Test Protocol
The activities of compounds of the present invention are tested against the L1210 murine leukemia cell line in vitro.
[…] cells are grown in RPMI 1640 culture medium containing 10% fetal bovine serum and gentamicin (50 micrograms per milliliter). A stock solution of the test compound is prepared in the appropriate solvent and further diluted in culture medium. Sequential twofold dilutions of drug are performed with 50 microliter transfers in 96-well microliter plates followed by the addition of 50 microliters of cell suspension containing 4×10^4 cells per milliliter.
After incubation at 37° C. in a humidified atmosphere of 5% CO2 in air for three days, 10 microliters of MTT [5 milligrams/milliliter 3-(4,5-dimethyl-2-thiazol)-2,5-diphenyltetrazolium bromide]are added to each well and the plates incubated at 37° C. for 3 hours before the addition of 100 microliters of 0.15 N HCl in isopropanol. Absorbance is read within one hour on a Dynatech MR 600 plate reader at 2 test wavelength of 570 nm and a reference wavelength of 630 nm. A microcomputer program converts optical density readings to percent growth and determines IC50 values (the amount of drug required to reduce absorbance to 50% of untreated controls) using nonlinear regression analysis.

[5] = Mus musculus, P388, ip, 120 h, read-out: P388 Leukemia % T/C (survival time treated/control x 100)

For `COc1cc([C@@H]2c3cc4c(cc3[C@@H](O[C@@H]3O[C@@H]5CO[C@@H](C)O[C@H]5[C@H](O)[C@H]3O)[C@H]3COC(=O)[C@H]23)OCO4)cc(OC)c1O` [Etoposide, etoposide, reference compound], the response vs control in vivo at 40 mg/kg ([1]; Mus musculus, P388, read-out: P388 Leukemia % T/C (survival time treated/control x 100)) is given as 295%, the 60-days survivors ([1]; P388, 40 mg/kg/inj, once daily on Days 1, 5, and 9) is given as 4/10 and the “toxicity (in words)” value [2] is given as “reduced toxicity”. For the same compound, the “antineoplastic activity (in words)” value [3] was “exhibited antineoplastic activity against certain tumors, including small-cell carcinoma of the lung, acute leukemia, malignant lymphoma, and testicular cancer”.
For `COc1cc([C@@H]2c3cc4c(cc3[C@@H](OCCN(C)CCO)[C@H]3COC(=O)[C@H]23)OCO4)cc(OC)c1O` [Example 2], the IC50 ([4]; L1210, 72 h) was 103 nM and the response vs control in vivo at 0.38 mg/kg [1, 5] was 170%.
`COc1cc([C@@H]2c3cc4c(cc3[C@@H](OCCN3CCOCC3)[C@H]3COC(=O)[C@H]23)OCO4)cc(OC)c1O` [Example 3, [5R-(5α,5aβ,8aα,9β)]-5,8,8a,9-tetrahydro-5-(4-hydroxy-3,5-dimethoxyphenyl)-9-[2-(4morpholinyl)ethoxy]furo[3',4':6,7]naphtho[2,3-d]-1,3-dioxol-6(5aH)-one] gave an IC50 ([4]; L1210, 72 h) of 235 nM and a response vs control in vivo at 3.1 mg/kg [1, 5] of 179%.
`COc1cc([C@@H]2c3cc4c(cc3[C@@H](OCCN(CCO)CCO)[C@H]3COC(=O)[C@H]23)OCO4)cc(OC)c1O` [Example 4] showed an IC50 ([4]; L1210, 72 h) of 336 nM and a response vs control in vivo at 1.5 mg/kg [1, 5] of 160%.
`CCN(CC)CCO[C@@H]1c2cc3c(cc2[C@@H](c2cc(OC)c(O)c(OC)c2)[C@H]2C(=O)OC[C@@H]21)OCO3` [Example 5, [5R-(5α,5aβ,8aα,9β)]-9-[2-(diethylamino)ethoxy]-5,8,8a,9-tetrahydro-5-(4-hydroxy-3,5-dimethoxyphenyl)furo[3',4':6,7]naphtho[2,3-d]-1,3-dioxol-6(5aH)-one] showed an IC50 ([4]; L1210, 72 h) of 198 nM and a response vs control in vivo at 3.1 mg/kg [1, 5] of 140%.
Compound `CCN(CC)CCCO[C@@H]1c2cc3c(cc2[C@@H](c2cc(OC)c(O)c(OC)c2)[C@H]2C(=O)OC[C@@H]21)OCO3` [Example 6, [5R-(5α,5aβ,8aα,9β)]-9-3-[(diethylamino)propoxy]-5,8,8a,9-tetrahydro-5-(4-hydroxy-3,5-dimethoxyphenyl)furo[3',4':6,7]naphtho[2,3-d]-1,3-dioxol-6(5aH)-one] has an IC50 ([4]; L1210, 72 h) of 250 nM and a response vs control in vivo at 2 mg/kg [1, 5] of 137%.
For `CCN(CC)CCOCCO[C@@H]1c2cc3c(cc2[C@@H](c2cc(OC)c(O)c(OC)c2)[C@H]2C(=O)OC[C@@H]21)OCO3` [Example 7, [5R-(5α,5aβ,8aα,9β)]-9-[2-[2-(diethyl-amino)ethoxy]ethoxy]-5,8,8a,9-tetrahydro-5-(4-hydroxy-3,5-dimethoxyphenyl)furo[3',4':6,7]naphtho[2,3-d]-1,3-dioxol-6(5aH)-one], the IC50 ([4]; L1210, 72 h) was 253 nM and the response vs control in vivo at 50 mg/kg [1, 5] was 170%.
`COc1cc([C@@H]2c3cc4c(cc3[C@@H](OCCN3CCCC3=O)[C@H]3COC(=O)[C@H]23)OCO4)cc(OC)c1O` [Example 8, [5S-(5α,5aβ,8aα,9β)]-1-[2-[[5,5a,6,8,8a,9-hexahydro-9-(4-hydroxy-3,5-dimethoxyphenyl)-8-oxofuro-[3',4':6,7]naphtho[2,3-d]-1,3-dioxol-5-yl]oxy]ethyl]-2-pyrrolidinone] gave an IC50 ([4]; L1210, 72 h) of 500 nM and a response vs control in vivo at 100 mg/kg [1, 5] of 167%.
Compound `COc1cc([C@@H]2c3cc4c(cc3[C@@H](SCCN3CCOCC3)[C@H]3COC(=O)[C@H]23)OCO4)cc(OC)c1O` [Example 9, [5R-(5α,5aβ,8aα,9β)]-5,8,8a,9-tetrahydro-5-(4-hydroxy-3,5-methoxyphenyl)-9-[[2-(4-morpholinyl)ethyl]thio]furo[3',4':6,7]naphtho[2,3-d]1,3-dioxol-6(5aH)-one] has an IC50 ([4]; L1210, 72 h) of 1390 nM and a response vs control in vivo at 50 mg/kg [1, 5] of 127%.
`COc1cc([C@@H]2c3cc4c(cc3[C@@H](SCC(O)CO)[C@H]3COC(=O)[C@H]23)OCO4)cc(OC)c1O` (stereo partly drawn) [Example 10] showed an IC50 ([4]; 72 h, L1210 cells, 3 days at 37° C., MTT) of 767 nM and a response vs control in vivo at 12.5 mg/kg [1, 5] of 114%.
With `COc1cc([C@@H]2c3cc4c(cc3[C@@H](S[C@@H]3O[C@@H]5COC(C)O[C@H]5[C@H](O)[C@H]3O)[C@H]3COC(=O)[C@H]23)OCO4)cc(OC)c1O` (stereo partly drawn) [Example 11, (5α,5aα,8aα,9β)-9-[(4,6-O-ethylidene-β-D-glucopyranosyl)thio]-5,8,8a,9-tetrahydro-5-(4-hydroxy-3,5-dimethoxyphenyl)furo[3',4':6,7]naphtho[2,3-d]-1,3-dioxol-6(5aH)-one] the IC50 ([4]; L1210, 72 h) was 305 nM, the response vs control in vivo at 50 mg/kg [1, 5] was 182% and the 40-day survivors ([1]; P388, 50 mg/kg/inj, intraperitoneal once daily for five days) was 3/6. For the same compound, the “antitumor activity (in words)” value ([1]; conclusion from the table (L1210 and P388)) was “highly active”.
In the case of `COc1cc([C@@H]2c3cc4c(cc3[C@H](O)[C@H]3COC(=O)[C@H]23)OCO4)cc(OC)c1OC` [podophyllotoxin], the “toxicity (in words)” value [2] is listed as “extremely toxic” and the “antineoplastic activity (in words)” value [3] is listed as “well documented”.
In the case of `COc1cc([C@@H]2c3cc4c(cc3[C@@H](O[C@@H]3O[C@@H]5CO[C@@H](c6cccs6)O[C@H]5[C@H](O)[C@H]3O)[C@H]3COC(=O)[C@H]23)OCO4)cc(OC)c1O` [teniposide], the “toxicity (in words)” value [2] is listed as “reduced toxicity” and the “antineoplastic activity (in words)” value [3] is listed as “exhibited antineoplastic activity against certain tumors, including small-cell carcinoma of the lung, acute leukemia, malignant lymphoma, and testicular cancer”.
